Results on four molecules are retold here after patent US9119837B2, “Use of sEH inhibitors as analgesics” (The Regents of the University of California, priority 2005, dated 2015).

One data set relates to pain or itch. In words: Topical EETs in the methods of the invention (comparison of EET regioisomers). The data set is classed as in vivo. The note with it: topical administration.
The next data set addresses T1, sEH (Homo sapiens, UniProt P34913).
T1 sequence (P34913 1-555): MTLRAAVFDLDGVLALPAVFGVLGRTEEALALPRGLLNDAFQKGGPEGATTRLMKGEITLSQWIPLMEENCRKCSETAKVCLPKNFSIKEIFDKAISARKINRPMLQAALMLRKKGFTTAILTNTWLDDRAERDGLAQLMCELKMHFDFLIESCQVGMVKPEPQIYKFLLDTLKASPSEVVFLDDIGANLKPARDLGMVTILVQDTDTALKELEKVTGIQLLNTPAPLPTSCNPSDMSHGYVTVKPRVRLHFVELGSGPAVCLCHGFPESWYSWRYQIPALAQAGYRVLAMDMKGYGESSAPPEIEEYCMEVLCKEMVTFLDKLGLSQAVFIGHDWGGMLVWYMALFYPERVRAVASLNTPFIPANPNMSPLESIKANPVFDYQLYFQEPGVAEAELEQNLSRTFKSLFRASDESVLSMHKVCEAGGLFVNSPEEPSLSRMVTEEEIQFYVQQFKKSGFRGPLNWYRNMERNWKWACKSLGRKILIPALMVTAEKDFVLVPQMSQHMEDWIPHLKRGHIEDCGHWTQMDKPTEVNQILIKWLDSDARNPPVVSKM
In words: Inhibition of sEH activity. Format: biochemical. The text has this:
Any of a number of standard assays for determining epoxide hydrolase activity can be used to determine inhibition of sEH. For example, suitable assays are described in Gill, et al., Anal Biochem 131, 273-282 (1983); and Borhan, et al., Analytical Biochemistry 231, 188-200 (1995)). Suitable in vitro assays are described in Zeldin et al., J Biol. Chem. 268:6402-6407 (1993). Suitable in vivo assays are described in Zeldin et al., Arch Biochem Biophys 330:87-96 (1996). […]
The enzyme also can be detected based on the binding of specific ligands to the catalytic site which either immobilize the enzyme or label it with a probe such as dansyl, fluoracein, luciferase, green fluorescent protein or other reagent. […] The enzyme also can be detected based on the generation of fluorescent products following the hydrolysis of the epoxide. […]

Another data set is described as follows: Metabolic stability. Format: in vitro ADME.
The subject of data set [1] is LPS-induced thermal hyperalgesia. Put plainly: LPS-induced thermal hyperalgesia, hind paw withdrawal latency test (Hargreaves). The data set is classed as in vivo, rat. The note with it: for LPS-induced thermal hyperalgesia, percent thermal withdrawal latency (TWL): topical in vehicle cream (Vanicream), 50 mg/kg, LPS 10 μg in hind paw, FIG. 1; for LPS-induced thermal hyperalgesia, dose dependence of percent TWL: topical in vehicle cream, LPS 10 μg, FIG. 2. The text has this: The hyperalgesic response with the hind paw withdrawal test is considered to result from a combination of central and peripheral mechanisms (Kannan et al., “Endotoxin-induced local inflammation and hyperalgesia in rats mice, a new model for inflammatory pain,” Pharmacology 66:373-379 (1996)). We used the method of Hargreaves et al., “A new and sensitive method for measuring thermal nociception in cutaneous hyperalgesia”, Pain 32, 77-88 (1988) to quantify the pain response of rats treated with two sEH inhibitors and EETs. Pain was quantified using the hind paw withdrawal latency test. Male Sprague-Dawley rats (Charles River Laboratories, Inc., Wilmington, Mass.) weighing 250-300 g, were used. Animals were individually housed at UC Davis Animal Resource Facility under standard conditions with free access to food and water, and maintained for at least 1 week before the experiments. Each rat was used only once. All the experiments were performed during the daytime between 8.00 and 13.00 h (during the first phase of the light period of the diurnal cycle). Rats were first trained to the experimental chamber in three separate sessions. In the day of the experiments rats' basal response was measured and then they were treated with a neutral cream or compound containing formulated cream preceding an injection with 10 ug of endotoxin (Lipopolysaccharide, “LPS”) or capsaicin in the right hind paw to induce pain response. Pain response was then measured at 30, 60, 120 and 240 minutes post LPS or capsaicin injection. sEHIs were formulated by dissolving them in ethanol and mixing with cream in a ratio of 1:9. Eight animals per group were used. To assess thermal nociceptive responses, a commercially available device modeled after that described by Hargreaves et al., supra, was employed. This device consists of a glass surface upon which the rats are placed individually in Plexiglass cubicles (9×22×25 cm). The glass surface temperature is maintained at either 30.1° C. by a feedback-controlled, under-glass, forced-air heating system. The heating system is driven by a thermocouple attached to the bottom surface of the glass plate. The thermal nociceptive stimulus originates from a focused projection bulb mounted in a stimulus tower that is manually manipulated in a two-dimensional axis to permit the stimulus to be delivered to hind paw of each test subject. A timer is automatically actuated with the light source, and response latency is defined as the time required for the paw to show an abrupt withdrawal. Paw withdrawal is detected by a photodiode motion sensor mounted on the stimulus tower that stops the timer and terminates the stimulus. In all cases, a cut-off of 20 seconds is employed to avoid tissue injury. […]

Data set [2] has as its system carrageenan-elicited thermal hyperalgesia. Put plainly: Carrageenan-elicited thermal hyperalgesia, paw withdrawal latency. The data set is classed as in vivo, rat. The note with it: carrageenan injected into ipsilateral paw at time 0; AUDA-be administered at 20 hours post-exposure; FIG. 6. The method, then:
Animals were exposed to carrageenan at time 0 by injection into ipsilateral paw, the contralateral paw was left untreated. AUDA-be was administered at 20 hours post-exposure to the carrageenan. Filled diamonds are the withdrawal tests of the treated paw. Filled squares are the tests of the untreated paw. To assess thermal nociceptive responses, a commercially available device modeled after that described by Hargreaves et al., supra, was employed. This device consists of a glass surface upon which the rats are placed individually in Plexiglass cubicles (9×22×25 cm). The glass surface temperature is maintained at either 30.1° C. by a feedback-controlled, under-glass, forced-air heating system. The heating system is driven by a thermocouple attached to the bottom surface of the glass plate. The thermal nociceptive stimulus originates from a focused projection bulb mounted in a stimulus tower that is manually manipulated in a two-dimensional axis to permit the stimulus to be delivered to hind paw of each test subject. A timer is automatically actuated with the light source, and response latency is defined as the time required for the paw to show an abrupt withdrawal. Paw withdrawal is detected by a photodiode motion sensor mounted on the stimulus tower that stops the timer and terminates the stimulus. In all cases, a cut-off of 20 seconds is employed to avoid tissue injury. […]
(In general: The carrageenan paw model is a standard test of acute inflammation.)

Data set [3] relates to LPS-elicited mechanical allodynia. Put plainly: LPS-elicited mechanical allodynia, von Frey filaments. The data set is classed as in vivo, rat. The note with it: topical in vehicle cream; 50 mg/kg; LPS 10 μg; FIG. 3. The method, then: For the quantification of mechanical allodynia, a set of von Frey filaments with different diameters corresponding to different quantities of force applied were employed. The baseline responses of animals were first determined and than LPS was injected in the hind paw. Responses were measured 1 hr and 2 hrs after LPS injection. Eight animals per group were used. Rats' paws were stimulated with filaments of increasing diameter three times. The diameter of filaments that rats withdraw their paws were recorded.

The structures appear in SMILES notation.

Consider `CCCCC/C=C\C[C@H]1O[C@H]1C/C=C\C/C=C\CCCC(=O)O` [11,12-EET], for which the “Effectiveness compared with other EETs in the methods of the invention” value in the data set on pain or itch is “ineffective or less effective than other EETs”.
With `CCCCCCCCCCCCNC(=O)NC12CC3CC(CC(C3)C1)C2` [ADU, N-Adamantyl-N′-dodecyl urea], the “Activity as an inhibitor of sEH” value at sEH is “particularly high activity on sEH”. In addition, the Metabolic stability entry in the data set “Metabolic stability” is reported as “metabolically stable”.
Regarding `CCCCOC(=O)CCCCCCCCCCCNC(=O)NC12CC3CC(CC(C3)C1)C2` [AUDA-be, 12-(3-Adamantan-1-yl-ureido)dodecanoic acid butyl ester], in data set [1], the “LPS-induced thermal hyperalgesia, percent thermal withdrawal latency (TWL)” value is reported as “block” and the “LPS-induced thermal hyperalgesia, dose dependence of percent TWL” value was “block LPS-induced thermal hyperalgesia in a dose dependent way”. Besides, the “Carrageenan-elicited thermal hyperalgesia, thermal withdrawal latency of paw (PWL)” value in data set [2] is on record as “blocks carrageenan-elicited thermal hyperalgesia”. Also, the “LPS-elicited mechanical allodynia, percent mechanical withdrawal threshold (MWT)” value in data set [3] is given as “block LPS-elicited mechanical allodynia”.
Turning to `CCOCCOCCOCCCCCNC(=O)NC12CC3CC(CC(C3)C1)C2` [compound 950, Adamantan-1-yl-3-{5-[2-(2-ethoxyethoxy)ethoxy]pentyl}urea], in data set [1], the “LPS-induced thermal hyperalgesia, percent thermal withdrawal latency (TWL)” value is “block” and the “LPS-induced thermal hyperalgesia, dose dependence of percent TWL” value is recorded as “block LPS-induced thermal hyperalgesia in a dose dependent way”. The “LPS-elicited mechanical allodynia, percent mechanical withdrawal threshold (MWT)” value in data set [3] was “block LPS-elicited mechanical allodynia”.
